How the values were obtained:
[1] = tested on: water load-induced elevation of intraocular pressure; experiment: Effect on water load-induced elevation of intraocular pressure, water load test (Experiment 2); type: in vivo, male New Zealand white rabbits; details: 2.0% sample solution
Protocol: In the following Experiments 1 to 6, the test animals used were male New Zealand white rabbits, each weighing about 2.5 kg, raised in a room where the room temperature, relative humidity and lighting time were controlled to be 23° C, 60% and from 07:00 to 19:00, respectively. The animals were chosen from those where no abnormalities could be detected in their eyes by observation with the naked eye. They were given water freely but feed was restricted. The compound under test was dissolved in 100 mM of a sodium phosphate buffer solution (pH 7.2) containing a small amount of a 0.1 N aqueous solution of sodium hydroxide. In the case of timolol maleate, a 0.5% w/v eye lotion (Timoptol 0.5%, Santen Pharm. Co.) was used as such. Each rabbit was anesthetized with urethane (1.0 g/kg, i.v.), and the IOP values of both eyes were measured. Immediately thereafter, 50 µℓ of the sample solution was applied to one eye (test eye). To the other eye (control eye), 50 µℓ of the vehicle alone was applied. Ninety minutes after this application, the values of IOP were measured and then the water load test was performed as follows. Sixty ml/kg of tap water was given compulsorily per os to the anesthetized rabbit, and then the values of IOP for both eyes were measured with the passage of time. In this Experiment, the test compound was the compound of Example 19(b), i.e. 9'-(4-acetoxybenzyl) griseolate.

[2] = tested on: Normal intraocular pressure; experiment: Normal intraocular pressure lowering effect (Experiment 3); type: in vivo, male New Zealand white rabbits; details: 2.0% sample solution, p < 0.05
Protocol: In the following Experiments 1 to 6, the test animals used were male New Zealand white rabbits, each weighing about 2.5 kg, raised in a room where the room temperature, relative humidity and lighting time were controlled to be 23° C, 60% and from 07:00 to 19:00, respectively. The animals were chosen from those where no abnormalities could be detected in their eyes by observation with the naked eye. They were given water freely but feed was restricted. The compound under test was dissolved in 100 mM of a sodium phosphate buffer solution (pH 7.2) containing a small amount of a 0.1 N aqueous solution of sodium hydroxide. In the case of timolol maleate, a 0.5% w/v eye lotion (Timoptol 0.5%, Santen Pharm. Co.) was used as such. The corneal surface was anesthetized by the application of oxybuprocain hydrochloride (Benoxil 0.4% solution, Santen Pharm. Co.), and the IOP was measured by means of an Alcon Applanation Pneumatograph (Japan Alcon) in rabbits. The measurements were carried out 2 or 3 times for each eye, and the mean value was calculated and is regarded as the value of IOP. After determination of the IOP, 25 µℓ of a sample solution was applied to one eye (test eye) three times every two minutes, and the same volume of the vehicle alone was applied to the other eye (control eye). The values of IOP of both eyes were measured with the passage of time. In this Experiment, the test compound was the compound of Example 19(b).

Structure (SMILES): CC(=O)Oc1ccc(COC(=O)C23C=C(C(O)C(=O)O)OC2C(O)C(n2cnc4c(N)ncnc42)O3)cc1 (stereo not drawn) [Example 19(b), 9'-(4-Acetoxybenzyl) griseolate]
- IOP of test eye ([1]; 50 µℓ, 90 minutes after application, before water loading, control eye 17.1 ± 1.1): 16.8 ± 1.0 mmHg
- IOP of test eye ([1]; 0.5 hours after water loading (60 ml/kg per os), control eye 28.7 ± 1.8, p < 0.05): 25.6 ± 2.2 mmHg
- IOP of test eye ([1]; 1.0 hours after water loading, control eye 26.3 ± 2.4, p < 0.05): 22.6 ± 2.3 mmHg
- IOP of test eye ([1]; 1.5 hours after water loading, control eye 20.3 ± 1.6, p < 0.05): 17.5 ± 1.2 mmHg
- IOP of test eye ([1]; 2.0 hours after water loading, control eye 17.4 ± 1.5): 17.1 ± 1.1 mmHg
- IOP of test eye ([1]; 2.5 hours after water loading, control eye 17.4 ± 1.9, p < 0.05): 15.6 ± 1.5 mmHg
- IOP of test eye ([2]; 25 µℓ three times every two minutes, one hour after application, control eye 20.7 ± 1.4): 19.5 ± 1.4 mmHg
- IOP of test eye ([2]; 2 hours after application, control eye 21.4): 19.3 ± 1.3 mmHg
- IOP of test eye ([2]; 5 hours after application, control eye 22.8 ± 0.5): 20.6 ± 0.7 mmHg
